Experimental data from PubChem BioAssay (NCI).
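GI50: concentration for 50% inhibition of growth. At the TGI there is no net growth.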

Assays:
Assay in all cases: NCI-60 cell line screen, 384-well format
[1] = tested on: A549 NSCLC
[2] = tested on: SR leukemia
[3] = tested on: CAKI-1 renal
[4] = tested on: M14 melanoma
[5] = tested on: MDA-MB-435 melanoma
[6] = tested on: UACC-257 melanoma
[7] = tested on: NCI-H23 lung
[8] = tested on: MDA-MB-231 breast
[9] = tested on: HL-60(TB) leukemia
[10] = tested on: HCT-116 colon
[11] = tested on: SN12C renal
[12] = tested on: OVCAR-4 ovarian
[13] = tested on: SW-620 colon
[14] = tested on: MOLT-4 leukemia
[15] = tested on: MCF7 breast
[16] = tested on: UO-31 renal
[17] = tested on: TK-10 renal
[18] = tested on: K-562 leukemia
[19] = tested on: KM12 colon
[20] = tested on: DU-145 prostate
[21] = tested on: NCI-H226 lung
[22] = tested on: SNB-75 CNS
[23] = tested on: SNB-19 CNS
[24] = tested on: RXF 393 renal
[25] = tested on: NCI-H460 NSCLC
[26] = tested on: MALME-3M melanoma
[27] = tested on: CCRF-CEM leukemia
[28] = tested on: UACC-62 melanoma
[29] = tested on: HCT-15 colon
[30] = tested on: IGROV1 ovarian
[31] = tested on: T-47D breast
[32] = tested on: NCI/ADR-RES ovarian
[33] = tested on: U251 glioblastoma
[34] = tested on: MDA-MB-468 breast
[35] = tested on: OVCAR-3 ovarian
[36] = tested on: BT-549 breast
[37] = tested on: HS 578T breast
[38] = tested on: HOP-92 NSCLC
[39] = tested on: HT29 colon
[40] = tested on: SF-268 CNS
[41] = tested on: RPMI-8226 leukemia
[42] = tested on: NCI-H322M lung
[43] = tested on: ACHN renal
[44] = tested on: SK-MEL-5 melanoma
[45] = tested on: 786-0 renal
[46] = tested on: EKVX NSCLC
[47] = tested on: NCI-H522 lung
[48] = tested on: HOP-62 NSCLC
[49] = tested on: SF-539 CNS
[50] = tested on: HCC-2998 colon
[51] = tested on: SK-OV-3 ovarian
[52] = tested on: COLO 205 colon
[53] = tested on: SK-MEL-28 melanoma
[54] = tested on: LOX IMVI melanoma
[55] = tested on: OVCAR-8 ovarian
[56] = tested on: A498 renal
[57] = tested on: SF-295 CNS
[58] = tested on: PC-3 prostate

Structure (SMILES): Cc1ccccc1C(C(=O)NC1CCCCC1)N(C(=O)Cn1ccnc1C)c1cccc(F)c1 (stereo unspecified)
- GI50 [1]: > 100 µM
- TGI [1]: > 100 µM
- GI50 [2]: 20 µM
- TGI [2]: 86.6 µM
- GI50 [3]: > 100 µM
- TGI [3]: > 100 µM
- GI50 [4]: > 100 µM
- TGI [4]: > 100 µM
- GI50 [5]: > 100 µM
- TGI [5]: > 100 µM
- GI50 [6]: > 100 µM
- TGI [6]: > 100 µM
- GI50 [7]: > 100 µM
- TGI [7]: > 100 µM
- GI50 [8]: 51.1 µM
- TGI [8]: > 100 µM
- GI50 [9]: > 100 µM
- TGI [9]: > 100 µM
- GI50 [10]: > 100 µM
- TGI [10]: > 100 µM
- GI50 [11]: > 100 µM
- TGI [11]: > 100 µM
- GI50 [12]: > 100 µM
- TGI [12]: > 100 µM
- GI50 [13]: > 100 µM
- TGI [13]: > 100 µM
- GI50 [14]: > 100 µM
- TGI [14]: > 100 µM
- GI50 [15]: > 100 µM
- TGI [15]: > 100 µM
- GI50 [16]: > 100 µM
- TGI [16]: > 100 µM
- GI50 [17]: 49.2 µM
- TGI [17]: > 100 µM
- GI50 [18]: > 100 µM
- TGI [18]: > 100 µM
- GI50 [19]: > 100 µM
- TGI [19]: > 100 µM
- GI50 [20]: > 100 µM
- TGI [20]: > 100 µM
- GI50 [21]: > 100 µM
- TGI [21]: > 100 µM
- GI50 [22]: 26.8 µM
- TGI [22]: > 100 µM
- GI50 [23]: > 100 µM
- TGI [23]: > 100 µM
- GI50 [24]: 20.5 µM
- TGI [24]: 96.6 µM
- GI50 [25]: > 100 µM
- TGI [25]: > 100 µM
- GI50 [26]: > 100 µM
- TGI [26]: > 100 µM
- GI50 [27]: > 100 µM
- TGI [27]: > 100 µM
- GI50 [28]: > 100 µM
- TGI [28]: > 100 µM
- GI50 [29]: > 100 µM
- TGI [29]: > 100 µM
- GI50 [30]: > 100 µM
- TGI [30]: > 100 µM
- GI50 [31]: 24.5 µM
- TGI [31]: > 100 µM
- GI50 [32]: > 100 µM
- TGI [32]: > 100 µM
- GI50 [33]: > 100 µM
- TGI [33]: > 100 µM
- GI50 [34]: > 100 µM
- TGI [34]: > 100 µM
- GI50 [35]: > 100 µM
- TGI [35]: > 100 µM
- GI50 [36]: > 100 µM
- TGI [36]: > 100 µM
- GI50 [37]: 27.4 µM
- TGI [37]: 83 µM
- GI50 [38]: 77.4 µM
- TGI [38]: > 100 µM
- GI50 [39]: > 100 µM
- TGI [39]: > 100 µM
- GI50 [40]: > 100 µM
- TGI [40]: > 100 µM
- GI50 [41]: > 100 µM
- TGI [41]: > 100 µM
- GI50 [42]: > 100 µM
- TGI [42]: > 100 µM
- GI50 [43]: > 100 µM
- TGI [43]: > 100 µM
- GI50 [44]: > 100 µM
- TGI [44]: > 100 µM
- GI50 [45]: > 100 µM
- TGI [45]: > 100 µM
- GI50 [46]: > 100 µM
- TGI [46]: > 100 µM
- GI50 [47]: > 100 µM
- TGI [47]: > 100 µM
- GI50 [48]: > 100 µM
- TGI [48]: > 100 µM
- GI50 [49]: 36.2 µM
- TGI [49]: > 100 µM
- GI50 [50]: > 100 µM
- TGI [50]: > 100 µM
- GI50 [51]: > 100 µM
- TGI [51]: > 100 µM
- GI50 [52]: > 100 µM
- TGI [52]: > 100 µM
- GI50 [53]: > 100 µM
- TGI [53]: > 100 µM
- GI50 [54]: 52.7 µM
- TGI [54]: > 100 µM
- GI50 [55]: 75.6 µM
- TGI [55]: > 100 µM
- GI50 [56]: 66.6 µM
- TGI [56]: > 100 µM
- GI50 [57]: 30 µM
- TGI [57]: > 100 µM
- GI50 [58]: > 100 µM
- TGI [58]: > 100 µM
